Assay results as given in patent publication US9107936B2, “Antagonists of GRASP55 for use as a medicament” (Institut National de la Sante et de la Recherche Medicale …, priority 2012, dated 2015).

Assays:
Format in all cases: binding, murine
[1] = biological target: T1, GST-GraspFL (GST-Grasp55 full length) (Mus musculus, UniProt Q99JX3); test: HTRF competition with GST-Grasp55 full length; conditions: biotinylated JAM-C peptide
T1 construct: GST-GraspFL (GST-Grasp55 full length); made in house; host or cells: bacteria Rosetta
Procedure: (§1) To refine and extend the results obtained by yeast two hybrid, an Homogenous Time Resolved Fluorescence (HTRF) assay have been set-up to measure interactions of various peptides with recombinant GST proteins corresponding to different regions of Grasp55.
Briefly, the technique consisted in incubating 18 h at 4° C. the biotinylated-Cterminal peptides (SEQ ID NO: 26 to 34) at the concentration of 1.9*10^−7M with the GST-fusion protein, the terbium-coupled anti-GST antibody (8*10^−10M each) and the d2-coupled streptavidin (4*10^−8M) (both from Cisbio), in 0.1 mL of Hepes 0.05M, NaCl 0.15M BSA 0.1% pH 7.2. In some experiments, competing peptide or chemicals were added to the incubation mix at the indicated concentration. After incubation, microtiter plates (Costar #3693) were red using PolarScan Omega (BMG Labtech) equipped for HTRF measurements. Upon excitation at 320 nm, a 620 nm fluorescence emission is produced by the donor terbium that in turn excites a 665 nm light emission by a Streptavidin-d2 (acceptor) bound to the Biotinylated interacting Peptide if the latter is interacting with the donor. The […] R ratio is obtained and a Delta F is computed as: [(Rsample−RNSB)/RNSB]*100 where RNSB is the Non Specific Background signal determined in incubates where the GST-fusion protein was omitted. […]

[2] = biological target: T2, GST-PDZI′+II′ (Grasp55 residues 1 to 208) (Mus musculus, UniProt Q99JX3); test: HTRF measurement of interaction of biotinylated C-terminal peptides with GST-PDZI′+II′; conditions: biotinylated JAM-C peptide, GST-PDZI′+II′
T2 construct: and 1 to 208 corresponding respectively to the PDZI′, PDZII′ and PDZI′+II′ constructs; made in house; host or cells: bacteria Rosetta
Procedure: as §1
(§2) Briefly, the technique consisted in incubating 18 h at 4° C. the biotinylated-Cterminal peptides (SEQ ID NO: 26 to 34) at the concentration of 1.9*10^−7M with the GST-fusion protein, the terbium-coupled anti-GST antibody (8*10^−10M each) and the d2-coupled streptavidin (4*10^−8M) (both from Cisbio), in 0.1 mL of Hepes 0.05M, NaCl 0.15M BSA 0.1% pH 7.2. In some experiments, competing peptide or chemicals were added to the incubation mix at the indicated concentration. After incubation, microtiter plates (Costar #3693) were red using PolarScan Omega (BMG Labtech) equipped for HTRF measurements. Upon excitation at 320 nm, a 620 nm fluorescence emission is produced by the donor terbium that in turn excites a 665 nm light emission by a Streptavidin-d2 (acceptor) bound to the Biotinylated interacting Peptide if the latter is interacting with the donor. The […] R ratio is obtained and a Delta F is computed as: [(Rsample−RNSB)/RNSB]*100 where RNSB is the Non Specific Background signal determined in incubates where the GST-fusion protein was omitted.
(§3) Having shown that HTRF measurement of interaction is a reliable technology to identify inhibitors of interaction. A screen of a chemical compound library provided by MRCt has been initiated. The screening consisted in the same HTRF technique used in Example 7 except that compounds from the library were added in the incubation mix at the final concentration of 6.6×10^−5M. […] Since such a result could be either due to a specific inhibition of the JAM-C peptide interaction to the recombinant Grasp55 PDZ domains or to a non-specific inhibition of the FRET signal between donor and acceptor in HTRF technology, the twenty selected compounds have been further tested. Indeed, compounds could potentially interfere with the binding of the anti-GST antibody terbium-labeled to the GST of the fusion protein, the binding of Streptavidin-d2 to the biotinylated peptide or promote strong interference at 320, […] or 665 nm. Thus, the putative hits obtained were screened for non-specific inhibition. To this end, the GST-PDZI′+II′ recombinant protein was biotinylated using Sulfo-NHS Biotin according to manufacturer instructions (Pierce). This allows designing an HTRF assay in which the d2-coupled streptavidin (acceptor) and the terbium-coupled anti-GST antibody are directly bound to recombinant GST-PDZI′+II′ protein and produce DeltaF signal independently of the biotinylated peptide. The twenty selected compounds were thus tested in this assay to eliminate those giving false inhibition of the HTRF signals while inhibitors of Biotinylated peptide interaction with GST-PDZI′+II′ should not interfere in this assay.

[3] = biological target: T3, GST-PDZI′ (Grasp55 residues 1 to 107) (Mus musculus, UniProt Q99JX3); test: HTRF measurement of interaction of biotinylated C-terminal peptides with GST-PDZI′; conditions: biotinylated JAM-C peptide, GST-PDZI′
T3 construct: GST fusion proteins encompassing residues 1 to 107; made in house; host or cells: bacteria Rosetta
Procedure: as §1, §2, §3

For “NYIRTSEEGDFRHKSSFVI [unlabelled peptide]”, the “EC50 of competition of the HTRF signal” value [1] was “low micromolar range”, the “EC50 of competition of the HTRF signal” value [2] was “low micromolar range” and the “increase in EC50 with GST-PDZI′ versus GST-PDZI′+II′ and GST-GraspFL” value [3] was “twenty fold increase in EC50”.
